Values after ≈ are worked out from the molar mass of the structure shown. Where two headings read alike, the source gives them in different places.
How the values were obtained:
Neisseria gonorrhoeae = conditions: cited from earlier work
[1] = comparative haematology analysis in the rat, oral dosing; conditions: for AUC: Han Wistar, in vivo, po; for AUC / haematology versus vehicle control: rat; for haematology versus vehicle control: 28 d
hCav1.2 = hCav1.2 (Homo sapiens, UniProt Q13936); test: In vitro ion channel function; format: cell-based; conditions: hCav1.2 IC50, Ca^2+ entry into excitable cells
From the text: (§1) Supplement srep11827-s1.doc, table 3 | column: Table S2: In vitro ion channel function IC50 (µM)

Ito/Kv4.3 = target: T1, Ito/Kv4.3 (Homo sapiens, UniProt Q9UK17); test: In vitro ion channel function; format: cell-based; conditions: Ito/Kv4.3 IC50, Transient outward K^+ early repolarization
T1 sequence (Q9UK17 1-655): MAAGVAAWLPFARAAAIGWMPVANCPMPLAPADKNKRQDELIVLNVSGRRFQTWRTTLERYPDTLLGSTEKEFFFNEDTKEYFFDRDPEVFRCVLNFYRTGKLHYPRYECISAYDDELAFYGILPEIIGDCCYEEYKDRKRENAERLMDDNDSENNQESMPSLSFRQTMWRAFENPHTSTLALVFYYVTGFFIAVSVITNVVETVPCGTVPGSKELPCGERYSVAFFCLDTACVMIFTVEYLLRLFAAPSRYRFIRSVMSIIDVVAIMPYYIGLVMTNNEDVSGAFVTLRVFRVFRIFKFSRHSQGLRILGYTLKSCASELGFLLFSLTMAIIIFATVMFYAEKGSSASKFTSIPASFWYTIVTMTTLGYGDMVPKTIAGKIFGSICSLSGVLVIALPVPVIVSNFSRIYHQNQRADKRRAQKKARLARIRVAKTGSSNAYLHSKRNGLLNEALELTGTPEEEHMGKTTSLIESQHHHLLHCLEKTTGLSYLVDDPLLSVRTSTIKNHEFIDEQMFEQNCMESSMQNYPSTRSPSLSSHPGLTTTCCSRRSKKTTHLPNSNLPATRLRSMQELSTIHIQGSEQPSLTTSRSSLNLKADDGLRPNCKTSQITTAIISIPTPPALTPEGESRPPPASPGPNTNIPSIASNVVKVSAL
From the text: as §1

USA100 NRS382 = test: MIC (modal, CLSI broth microdilution); format: cell-based, S. aureus; conditions: Staphylococcus aureus, read-out: Modal MIC
[2] = test system: Coagulase-negative Staphylococci; parameters: method as in ref 2 (supplement); conditions: 1923 tested; ref 2 (supplement); cited from earlier work
S. aureus DNA gyrase = S. aureus DNA gyrase (Staphylococcus aureus, UniProt P0A0K8+P20831); conditions: free Mg2+ 0.06 μM to 8 mM
S. aureus DNA gyrase, sequence (P0A0K8 whole entry): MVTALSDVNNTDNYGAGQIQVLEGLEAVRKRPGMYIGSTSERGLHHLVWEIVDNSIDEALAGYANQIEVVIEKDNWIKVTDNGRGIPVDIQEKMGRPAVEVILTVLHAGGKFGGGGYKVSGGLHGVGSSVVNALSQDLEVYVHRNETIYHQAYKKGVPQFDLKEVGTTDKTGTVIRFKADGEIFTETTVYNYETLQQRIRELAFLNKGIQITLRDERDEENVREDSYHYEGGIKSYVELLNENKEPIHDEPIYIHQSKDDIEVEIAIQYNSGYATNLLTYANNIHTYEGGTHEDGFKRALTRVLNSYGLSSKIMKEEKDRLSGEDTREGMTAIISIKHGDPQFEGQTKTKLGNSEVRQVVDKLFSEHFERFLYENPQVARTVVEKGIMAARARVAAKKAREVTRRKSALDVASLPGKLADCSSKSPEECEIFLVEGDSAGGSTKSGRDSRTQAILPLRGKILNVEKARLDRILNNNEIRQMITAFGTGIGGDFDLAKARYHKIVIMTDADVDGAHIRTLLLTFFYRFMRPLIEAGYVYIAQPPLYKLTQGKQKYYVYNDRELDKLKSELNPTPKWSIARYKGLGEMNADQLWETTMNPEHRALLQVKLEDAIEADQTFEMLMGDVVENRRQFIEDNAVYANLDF
S. aureus DNA gyrase, sequence (P20831 whole entry): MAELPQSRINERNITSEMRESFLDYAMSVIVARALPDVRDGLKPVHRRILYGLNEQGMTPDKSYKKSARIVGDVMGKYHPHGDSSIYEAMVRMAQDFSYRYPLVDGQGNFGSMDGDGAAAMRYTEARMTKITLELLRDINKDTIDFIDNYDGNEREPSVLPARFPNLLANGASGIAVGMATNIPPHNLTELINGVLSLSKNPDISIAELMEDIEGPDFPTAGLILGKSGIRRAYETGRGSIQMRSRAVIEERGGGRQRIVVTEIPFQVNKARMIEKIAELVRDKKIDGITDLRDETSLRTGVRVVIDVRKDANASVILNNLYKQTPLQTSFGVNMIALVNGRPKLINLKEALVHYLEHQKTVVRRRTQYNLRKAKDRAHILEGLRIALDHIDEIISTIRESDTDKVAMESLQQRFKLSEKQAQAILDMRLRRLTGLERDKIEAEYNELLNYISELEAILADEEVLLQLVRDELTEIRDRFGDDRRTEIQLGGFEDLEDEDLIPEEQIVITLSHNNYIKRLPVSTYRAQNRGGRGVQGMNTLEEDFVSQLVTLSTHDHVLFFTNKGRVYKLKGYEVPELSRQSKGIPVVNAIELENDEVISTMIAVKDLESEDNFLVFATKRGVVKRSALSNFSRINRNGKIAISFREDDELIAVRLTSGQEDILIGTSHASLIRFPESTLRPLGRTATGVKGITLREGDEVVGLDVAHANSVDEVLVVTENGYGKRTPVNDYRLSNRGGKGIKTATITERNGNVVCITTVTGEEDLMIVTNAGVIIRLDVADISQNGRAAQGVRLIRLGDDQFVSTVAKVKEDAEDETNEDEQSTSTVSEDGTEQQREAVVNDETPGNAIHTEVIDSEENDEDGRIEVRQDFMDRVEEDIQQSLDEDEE
Method: Reactions were quenched by adding 3 μl of 2% SDS and 1 mg/ml proteinase K (30 min at 37 °C). DNA loading dye (4 μl) was added and DNA products were quantified by gel electrophoresis. Samples (25 μl) were loaded into wells of 1% agarose gels buffered with 40 mM Tris, 20 mM acetic acid, and 1 mM EDTA at pH 8.4 and run for 18 to 20 hours at 30V, or 3 hours at 60V including 1 µg/ml ethidium bromide in gel running buffer. DNA bands from gel electrophoresis were visualized by staining with ethidium bromide (5 µg/ml in TAE) after electrophoresis. DNA was quantified from digital images acquired during UV transillumination using AlphaEase software (Genetic Technologies). Background from control wells without inhibitor was subtracted.

[3] = Phase 1 study in healthy volunteers, oral suspension; format: in vivo, human
Method: A Phase 1 multipart study[65] in healthy adult volunteers (informed consent with males and females of non-childbearing potential) with ETX0914 was performed under approval of the AstraZeneca Innovative Medicines Safety Review Board and the United States Food and Drug Administration. ETX0914 was administered orally as an aqueous suspension containing 1% w/v povidone K29–32, 0.2% m/v sodium lauryl sulfate and 0.25% w/v glycerin. In Part A of this study, 48 healthy subjects (ranging in age from 19 to 55 years) under fasting conditions received single ascending doses of 200–4000 mg formulated ETX0914 or placebo (6:2, ETX0914:placebo). In Part B, a second set of 18 healthy subjects (ranging in age from 22 to 48 years) were randomized into two equal dosing cohorts receiving a single dose of either 1500 mg ([…]) or 3000 mg ([…]) of ETX0914 in the fasting state and 30 minutes after a meal. Safety monitoring for both Parts A and B included vital signs, electrocardiogram, continuous telemetry, safety laboratory testing (clinical chemistry, haematology and urinalysis) and adverse events monitoring. Blood samples (1 mL) were collected at 0.5, 1, 1.5, 2, 2.5, 3, 4, 5, 6, 8, 10, 12, 24, 36, 48 and 72 h post dose. Urine samples were collected during−12 to 0 hours pre-dose, and 0 to 4, 4 to 8, 8 to 12, 12 to 24, 24 to 48, and 48 to 72 h post-dose. PK parameters were separately determined for the cohorts in each of the Part A and Part B studies. Concentrations of ETX0914 in the plasma and urine were quantified by LC-MS/MS. Plasma PK parameters were calculated using Phoenix WinNonLin software.
AZD0914 was analyzed in mouse, rat, dog, monkey plasma using a qualified method which was later validated for human plasma analysis. The validated human method is described below and is representative of the approach taken in other species. AZD0914 was determined in human plasma prepared with K2EDTA as an anticoagulant. AZD0914 and an internal standard (^13C2, ^15N2 AZD0914) were extracted from plasma with tert- butyl methyl ether. After evaporating to dryness under a stream of nitrogen, the residue was reconstituted and quantitated by reverse phase HPLC-MS/MS against a standard curve from 1.00 to 5000 ng/ml. Separation was achieved using a gradient which went from 55% to 85% methanol:acetonitrile (1:1) containing 0.2% formic acid as mobile phase B and 0.2% formic acid in water as mobile phase A at a flow rate of 0.60 ml/min through a Phenomonex Gemini C18 column (50 x 2.0 mm column, […]) heated using a Shimadzu CTO-20AC set to 40 °C. AZD0914 was detected in multiple reaction monitoring (MRM) mode by positive ion electrospray ionization using a Sciex API5500 (Toronto, Canada) mass spectrometer. The ion spray voltage was set to 5500 V and turboionspray temperature was 650 °C. AZD0914 was quantitated using the MRM transition 488.2 → 348.2 using a collision energy of 29 eV. The internal standard, (^13C2, ^15N2 AZD0914), was monitored using identical conditions except for the MRM transition of 492.2 → 348.2.

[4] = 473 tested, ref 4-6 (supplement)
[5] = both sexes, human, plasma, oral, 3000 mg, fasting

## C[C@@H]1CN2c3c(cc4c(N5C(=O)OC[C@@H]5C)noc4c3F)CC3(C(=O)NC(=O)NC3=O)[C@H]2[C@H](C)O1 [ETX0914]
Neisseria gonorrhoeae; [4]
  MIC90: 0.125^4-6 µg/ml
  MIC Range: 0.004 to 0.25 µg/mL
Neisseria gonorrhoeae; Table 2, first entry of the cell (ciprofloxacin: 250 mg UID line)
  MIC90, gonococcal infection (N. gonorrhoeae): 0.12 µg/mL (≈ 0.246 µM)
[1]; 200 mg/kg
  AUC: 1100 ± 130 µM·h
[1]; 500 mg/kg
  AUC: 2460 ± 470 µM·h
[1]; 1000 mg/kg
  AUC: 3820 ± 650 µM·h
[1]; data not shown
  platelet count: no significant changes in platelet count
[1]; 2 lower doses (200, 500 mg/kg)
  haematology versus vehicle control: within statistical equivalence of the vehicle control
[1]; highest dose (1000 mg/kg)
  haematology versus vehicle control: statistical elevation in reticulocytes, lymphocytes and white blood cells
hCav1.2
  IC50: 326 µM
Ito/Kv4.3
  IC50: 216 µM
USA100 NRS382
  MIC: 0.125 µg/mL (≈ 0.256 µM)
[2]
  MIC90: 0.25^2 µg/ml
  MIC Range: 0.015 to 2.0 µg/mL
S. aureus DNA gyrase
  re-ligation of inhibitor-induced cleaved DNA on removal of Mg2+: re-ligation remained blocked
S. aureus DNA gyrase; listed as AZD0914
  re-ligation of inhibitor-induced cleaved DNA on removal of Mg2+: No ligation is observed
[3]; 3000 mg
  increase in AUC with high fat meal: > 40%
[3]; Phase 1, 200–4000 mg
  serious adverse events: No serious adverse events
[3]; Phase 1, reversible in all subjects
  mild and non-serious AEs: transient dysgeusia and headache
[3]; [5]
  AUC: 195 µg·h/mL
  Cmax: 22900 ng/mL
[3]; both sexes, human, plasma, oral, 3000 mg, fasting, read-out: Tmax
  Tmax: 2.2 h
[3]; both sexes, human, plasma, oral, 3000 mg, preceded by a high fat meal
  AUC: 281 µg·h/mL
[3]; both sexes, human, plasma, oral, 3000 mg, with food
  Cmax: 24000 ng/mL
[3]; both sexes, human, plasma, oral, 3000 mg, with food, read-out: Tmax
  Tmax: 4 h
[3]; both sexes, human, plasma, oral, 8 to 72 hour post-dose period
  half-life: 5.2 to 6.25 h
[3]; both sexes, human, plasma, po, fasting, 200–4000 mg single oral dose, read-out: median Tmax
  Tmax: 1.5 to 2.26 h
[3]; both, human, urine, po
  oral dose excreted as parent drug in urine: Less than 5%
[3]; highest 4000 mg dose
  margin of human AUC to NOAEL in dog: 4.8 fold
  margin of human AUC to NOAEL in rat: 6.4 fold
  margin of human Cmax to NOAEL in dog: 3.7 fold
  margin of human Cmax to NOAEL in rat: 4.9 fold
[3]; human AUC0-24h versus dose
  doses at which the efficacious AUC was exceeded: > 800 mg

Source: paper PMC4501059, “Responding to the challenge of untreatable gonorrhea: ETX0914, a first-in-class agent with a distinct mechanism-of-action against bacterial Type II topoisomerases” (Scientific Reports, 2015)
